Laboratory results: patent publication US20040106626A1, “6-Membered unsaturated heterocyclic compounds useful for selective inhibition of the coagulation cascade” (Pharmacia Corporation, priority 2001, published 2004)
Values joined by “and” are separate entries in the source; they are usually repeats but may differ in a detail not shown here. Equal entries are not always repeated. Where two headings read alike, the source gives them in different places.

What was measured:
[1] = system: thrombus formation in vena cava; experiment: Deep vein thrombosis model, thrombus accumulation on threads in vena cava; format: in vivo, Macaca fascicularis; settings: non-human primate, n=4
Description: This model measures the accumulation of thrombus on a set of four threads (4-0 surgical silk) that are introduced into the vena cava of a non-human primate. The device used to introduce the threads consists of a copper wire (12 cm) contained in a sheath of polyethylene tubing (9 cm). Four 4-0 surgical silk threads (3 cm) are tied to the end of the wire and retracted into the tubing. When the device is inserted into the iliac vein, the wire is advanced introducing the threads into the vena cava between the bifurcation and the left renal vein.
(§1) Non-human primates (Macaca fascicularis) are lightly anesthetized with ketamine to facilitate placement of an endotracheal tube and a femoral venous catheter. Animals are put into and maintained in a deep plane of anesthesia using pentobarbital via the femoral vein cannula. A jugular vein is cannulated for infusion of drug and a carotid artery is cannulated for blood sampling and for monitoring hemodynamic parameters.
The abdominal cavity is opened and an ultrasonic flow probe placed on the left iliac vein. The right iliac vein (RIV) is dissected free of surrounding tissue for a length of approximately 4 cm. The RIV is ligated approximately 4 cm distal to the bifurcation of the abdominal vena cava and a second ligature is placed, loosely, approximately 2 cm distal to the bifurcation. An incision is made in the RIV between the two ligatures, the device described above introduced into the iliac vein and the threads advanced into the vena cava. Every study consists of three thrombus measurements:
Control—Saline infusion. Threads are introduced and left in for 30 min, removed and thrombus weighed.
Treatment 1—Aspirin administered as a bolus or compound as an infusion. For aspirin treatment, aspirin is administered as a bolus and a 30 min equilibration period is allowed to assure the platelets are inhibited. For compound treatment, infusion is started and allowed to run for 30 min to reach steady-state blood levels of compound. Threads are introduced and left in for 30 min, removed and thrombus weighed;
Treatment 2—Compound administered as an infusion. Compound infusion is started and allowed to run for 30 min to reach steady-state blood levels of compound. Threads are introduced and left in for 30 min, removed and thrombus weighed.
During the 30 min equilibration/infusion periods of Treatment 1 and Treatment 2, a piece of tubing containing a copper wire, but no threads, is introduced into the vein to maintain the integrity of the vessel. After the threads have been in the vessel for 30 min, the entire device is removed from the vessel and the threads are cut from the device and weighed. The weight of the threads prior to insertion in the vessel is subtracted to get the net thrombus weight

[2] = system: prothrombin time; experiment: Prothrombin time in deep vein thrombosis model; format: in vivo, Macaca fascicularis; settings: non-human primate, n=4
Protocol: The prothrombin time (PT) assay is a clotting assay that is used to determine deficiencies of clotting factor activity in the extrinsic pathway. The assay measures time to clotting after the addition of thromboplastin (human tissue factor). Normal human pooled plasma is incubated with 100 uM compound or saline in a coagulation machine. Thromboplastin is added and time to clotting is measured. Compounds with greater than 3×normal PT of 11.0 seconds are further analyzed by concentration response to determine at what concentration the prothrombin time is prolonged by 2×normal.
as §1
The table below depicts the effects of Aspirin coadministered with a compound of the present invention (compounds 54 and 55 are salts of the compound tested) on thrombus formation, prothrombin time and bleeding time in a non-human primate model of deep vein thrombosis.

[3] = system: bleeding time; experiment: Bleeding time in deep vein thrombosis model; format: in vivo, Macaca fascicularis; settings: non-human primate, n=4
Protocol: To measure bleeding time, a blood pressure cuff is placed on the upper arm and inflated to 40 mm Hg. Two uniform cuts are made in the volar surface of the forearm, the blood from the cuts is collected onto a gauze pad every 30 sec. The time from when the cuts are made until the bleeding stops is considered the bleeding time. All gauze used to collect blood is placed in Drabkin's solution and the amount of blood lost from the bleeding time site is calculated based on the amount of hemoglobin measured in the Drabkin's solution.

[4] = target: T1, recombinant soluble tissue factor and recombinant human factor VIIa (TF-VIIa) (Homo sapiens, UniProt P08709); experiment: TF-VIIa assay (chromogenic substrate hydrolysis); format: biochemical; settings: reported only as less than or greater than 0.1 uM
T1 construct: conversion of coagulation factor VII to VIIa by factor Xa; purchased American Diagnostica, Greenwich CT; host or cells: soluble TF made in house in E. coli
Outline: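 100 nM soluble tissue factor and 2 nM recombinant human factor VIIa added to 0.4 mM N-methylsulfonyl-D-phe-gly-arg-p-nitroaniline with inhibitor in 50 mM Tris-HCl pH 8.0, 5 mM CaCl2, 100 mM NaCl, 0.1% BSA. Percent inhibition from OD405 versus control.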

[5] = target: T2, Human factor Xa (Homo sapiens, UniProt P00742); experiment: Xa assay (chromogenic substrate S-2765); format: biochemical; settings: reported only as less than or greater than 30 uM; read-out: Factor Xa (II) IC50
T2 construct: purchased Enzyme Research Laboratories, South Bend Ind
Outline: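 Human factor Xa (0.3 nM) was incubated with inhibitor and 0.15 mM S-2765 in 50 mM Tris-HCl pH 8.0, 100 mM NaCl, 0.1% BSA. After 60 min at RT, p-nitroaniline release was read at 405 nm after background subtraction. Percent inhibition was calculated against uninhibited control.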

[6] = target: T3, Human thrombin (Homo sapiens, UniProt P00734); experiment: Thrombin assay (chromogenic substrate); format: biochemical
T3 construct: converts prothrombin (II) to thrombin (IIa); purchased Calbiochem, La Jolla, Calif
Outline: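 Chromogenic assay with p-nitroaniline-releasing substrate; thrombin activity read as OD405 nm. Percent inhibition calculated from experimental versus control absorbance.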

[7] = system: Normal human pooled plasma; experiment: Prothrombin time (PT) clotting assay; format: biochemical; settings: concentration at which prothrombin time is prolonged by 2x normal, reported as less than or greater than 50 uM
Outline: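 Normal human pooled plasma incubated with 100 uM compound or saline, then thromboplastin (human tissue factor) added and clotting time recorded in a coagulation machine. Compounds exceeding 3× normal PT (11.0 s) are titrated to find the concentration doubling PT.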

[8] = Aspirin bolus followed by compound infusion 50 μg/kg/min (coadministered)
[9] = Aspirin bolus followed by compound infusion 100 μg/kg/min (coadministered)
[10] = compound infusion 100 μg/kg/min, no aspirin
[11] = compound infusion 200 μg/kg/min, no aspirin
[12] = reported only as less than or greater than 30 uM, read-out: Thrombin (II) IC50

T2 sequence (P00742 235-488 limits assumed): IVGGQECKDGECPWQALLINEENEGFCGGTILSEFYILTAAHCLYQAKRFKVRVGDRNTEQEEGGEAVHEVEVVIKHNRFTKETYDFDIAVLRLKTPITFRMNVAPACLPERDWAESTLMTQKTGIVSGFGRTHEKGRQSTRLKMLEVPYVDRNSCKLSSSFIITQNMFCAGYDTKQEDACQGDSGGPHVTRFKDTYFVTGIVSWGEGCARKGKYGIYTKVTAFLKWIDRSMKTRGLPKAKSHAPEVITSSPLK
T2 sequence (P00742 41-179 limits assumed): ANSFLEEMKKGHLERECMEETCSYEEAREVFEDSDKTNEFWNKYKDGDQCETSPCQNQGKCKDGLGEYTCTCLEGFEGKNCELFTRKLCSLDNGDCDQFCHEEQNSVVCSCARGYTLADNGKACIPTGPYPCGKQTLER
T1 sequence (P08709 213-466 limits assumed): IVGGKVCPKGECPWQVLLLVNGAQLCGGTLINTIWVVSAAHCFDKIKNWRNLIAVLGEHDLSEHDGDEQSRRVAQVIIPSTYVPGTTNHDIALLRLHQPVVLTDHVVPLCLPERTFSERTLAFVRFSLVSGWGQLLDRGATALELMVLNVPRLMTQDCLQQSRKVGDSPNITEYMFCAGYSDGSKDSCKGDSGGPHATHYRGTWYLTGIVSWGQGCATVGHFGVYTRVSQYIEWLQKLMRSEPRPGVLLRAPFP
T1 sequence (P08709 61-212 limits assumed): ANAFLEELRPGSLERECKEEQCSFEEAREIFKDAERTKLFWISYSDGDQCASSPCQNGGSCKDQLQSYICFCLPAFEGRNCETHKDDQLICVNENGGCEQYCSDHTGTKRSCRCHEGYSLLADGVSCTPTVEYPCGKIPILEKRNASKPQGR
T1 sequence (P13726 33-251 partner limits assumed): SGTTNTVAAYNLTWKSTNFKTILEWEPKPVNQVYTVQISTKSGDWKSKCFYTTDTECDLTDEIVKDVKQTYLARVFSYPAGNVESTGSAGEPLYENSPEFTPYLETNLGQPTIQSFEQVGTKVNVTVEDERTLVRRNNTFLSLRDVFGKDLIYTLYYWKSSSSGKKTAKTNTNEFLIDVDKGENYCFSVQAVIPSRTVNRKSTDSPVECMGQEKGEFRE

Compound | IC50 [4] | IC50 [5] | IC50 [6, 12] | PT (Prothrombin time) 2xPT [7] | also measured
CC(=O)Oc1ccccc1C(=O)O [Aspirin, reference compound] | – | – | – | – | Net Thrombus Wt ([1]; Aspirin bolus alone): 30.9 mg and 26.7 mg; Thrombus Wt: % Δ from Control ([1]; Aspirin bolus alone): −12% and −4%; Prothrombin Time ([2]; Aspirin bolus alone): 11.8 s and 11.5 s; Bleeding Time ([3]; Aspirin bolus alone): 4.6 min and 4.3 min
CC(C)Nc1ncc(-c2cc(N)cc(O)c2)n(CC(=O)NCc2ccc(C(=N)N)cc2)c1=O [Compounds 54 and 55] | – | – | – | – | Net Thrombus Wt [1, 8]: 19.5 mg; Thrombus Wt: % Δ from Control [1, 8]: −34%; Net Thrombus Wt [1, 9]: 3.6 mg; Thrombus Wt: % Δ from Control [1, 9]: −89%; Net Thrombus Wt [1, 10]: 15.3 mg; Thrombus Wt: % Δ from Control [1, 10]: −56%; Net Thrombus Wt [1, 11]: 5.1 mg; Thrombus Wt: % Δ from Control [1, 11]: −85%; Prothrombin Time [2, 8]: 17.3 s; Prothrombin Time [2, 9]: 22.4 s; Prothrombin Time [2, 10]: 22.7 s; Prothrombin Time [2, 11]: 46.0 s; Bleeding Time [3, 8]: 4.1 min; Bleeding Time [3, 9]: 4.7 min; Bleeding Time [3, 11]: 3.9 min
CC(C)Nc1ncc(-c2cc(N)cc(OCC3CCCCC3)c2)n(CC(=O)NCc2ccc(C(=N)N)cc2)c1=O.O=C(O)C(F)(F)F.O=C(O)C(F)(F)F [Example 221] | < 0.1 µM | > 30 µM | > 30 µM | >50.0 µM | –
CCCCOc1cc(N)cc(-c2cnc(NC(C)C)c(=O)n2CC(=O)NCc2ccc(C(=N)N)cc2)c1.O=C(O)C(F)(F)F.O=C(O)C(F)(F)F [Example 222] | < 0.1 µM | > 30 µM | > 30 µM | <50.0 µM | –
CC(C)Nc1ncc(-c2cc(N)cc(OCC3CC3)c2)n(CC(=O)NCc2ccc(C(=N)N)cc2)c1=O.O=C(O)C(F)(F)F.O=C(O)C(F)(F)F [Example 223] | < 0.1 µM | > 30 µM | > 30 µM | <50.0 µM | –
CCC(C)Oc1cc(N)cc(-c2cnc(NC(C)C)c(=O)n2CC(=O)NCc2ccc(C(=N)N)cc2)c1.O=C(O)C(F)(F)F.O=C(O)C(F)(F)F (stereo not drawn) [Example 224] | < 0.1 µM | > 30 µM | > 30 µM | <50.0 µM | –
CC(C)Nc1ncc(-c2cc(N)cc(OC3CCCCC3)c2)n(CC(=O)NCc2ccc(C(=N)N)cc2)c1=O.O=C(O)C(F)(F)F.O=C(O)C(F)(F)F [Example 225] | < 0.1 µM | > 30 µM | > 30 µM | >50.0 µM | –
CC(C)Nc1ncc(-c2cc(N)cc(-c3nnn[nH]3)c2)n(CC(=O)NCc2ccc(C(=N)N)cc2)c1=O.O=C(O)C(F)(F)F [Example 227, N-{4-[amino(imino)methyl]benzyl}-2-[6-[3-amino-5-(1H-tetraazol-5-yl)phenyl]-3-(isopropylamino)-2-oxopyrazin-1 (2H)-yl]acetamide] | < 0.1 µM | > 30 µM | > 30 µM | <50.0 µM | –
CC(C)Nc1ncc(-c2cc(N)cc(S(=O)(=O)CC(C)(C)C)c2)n(CC(=O)NCc2ccc(C(=N)N)cc2)c1=O.O=C(O)C(F)(F)F.O=C(O)C(F)(F)F [Example 228] | < 0.1 µM | > 30 µM | > 30 µM | <50.0 µM | –
CCC(CC)CS(=O)(=O)c1cc(N)cc(-c2cnc(NC(C)C)c(=O)n2CC(=O)NCc2ccc(C(=N)N)cc2)c1.O=C(O)C(F)(F)F.O=C(O)C(F)(F)F [Example 229] | < 0.1 µM | > 30 µM | > 30 µM | <50.0 µM | –
CCCCS(=O)(=O)c1cc(N)cc(-c2cnc(NC(C)C)c(=O)n2CC(=O)NCc2ccc(C(=N)N)cc2)c1.O=C(O)C(F)(F)F.O=C(O)C(F)(F)F [Example 230] | < 0.1 µM | > 30 µM | > 30 µM | <50.0 µM | –
CCC(CC)S(=O)(=O)c1cc(N)cc(-c2cnc(NC(C)C)c(=O)n2CC(=O)NCc2ccc(C(=N)N)cc2)c1.O=C(O)C(F)(F)F.O=C(O)C(F)(F)F [Example 231] | < 0.1 µM | > 30 µM | > 30 µM | <50.0 µM | –
CCS(=O)(=O)c1cc(N)cc(-c2cnc(NC(C)C)c(=O)n2CC(=O)NCc2ccc(C(=N)N)cc2)c1.O=C(O)C(F)(F)F.O=C(O)C(F)(F)F [Example 232] | < 0.1 µM | > 30 µM | > 30 µM | <50.0 µM | –
CC(C)Nc1ncc(-c2cc(N)cc(S(=O)(=O)CC3CCCCC3)c2)n(CC(=O)NCc2ccc(C(=N)N)cc2)c1=O.O=C(O)C(F)(F)F.O=C(O)C(F)(F)F [Example 233] | < 0.1 µM | > 30 µM | > 30 µM | <50.0 µM | –
CC(C)Nc1ncc(-c2cc(N)cc(S(=O)(=O)C3CCCC3)c2)n(CC(=O)NCc2ccc(C(=N)N)cc2)c1=O.O=C(O)C(F)(F)F.O=C(O)C(F)(F)F [Example 235] | < 0.1 µM | > 30 µM | > 30 µM | <50.0 µM | –
CCC(C)CS(=O)(=O)c1cc(N)cc(-c2cnc(NC(C)C)c(=O)n2CC(=O)NCc2ccc(C(=N)N)cc2)c1.O=C(O)C(F)(F)F.O=C(O)C(F)(F)F (stereo not drawn) [Example 237] | < 0.1 µM | > 30 µM | > 30 µM | <50.0 µM | –
CC(C)Nc1ncc(-c2cc(N)cc(OC(=O)C3CC3)c2)n(CC(=O)NCc2ccc(C(=N)N)cc2)c1=O.O=C(O)C(F)(F)F.O=C(O)C(F)(F)F [Example 238] | < 0.1 µM | > 30 µM | > 30 µM | <50.0 µM | –
CC(C)Nc1ncc(-c2cc(N)cc(OC(=O)NCc3ccccc3)c2)n(CC(=O)NCc2ccc(C(=N)N)cc2)c1=O.O=C(O)C(F)(F)F.O=C(O)C(F)(F)F [Example 239] | < 0.1 µM | > 30 µM | – | <50.0 µM | IC50 ([6]; Thrombin (II) IC50, reported only as less than or greater than 30 uM): > 30 µM
CC[C@@H](C)NC(=O)c1cc(N)cc(-c2cnc(NC(C)C)c(=O)n2CC(=O)NCc2ccc(C(=N)N)cc2O)c1.O=C(O)C(F)(F)F [Example 240] | < 0.1 µM | > 30 µM | > 30 µM | <50.0 µM | –
